Measurements taken from patent US20200288710A1, “SUBSTITUTED SULPHONAMIDES FOR CONTROLLING ANIMAL PESTS” (BAYER CROPSCIENCE AKTIENGESELLSCHAFT, priority 2016, published 2020).

How the values were obtained:
Myzus persicae = Myzus persicae oral test; format: in vivo; settings: 120 h, 20 ppm, oral uptake, after 5 days, read-out: efficacy
Outline: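 Compound dissolved in acetone, diluted in water, then mixed 50:150 μl with IPL41 insect medium (33%+15% sugar). Mixed-population green peach aphids feed through a parafilm seal on the solution; mortality scored as % efficacy after 5 days (100% = all killed).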

Meloidogyne incognita = Meloidogyne incognita test; format: in vivo; settings: 336 h, lettuce, after 14 days, read-out: nematicidal efficacy (formation of galls)
Method: Meloidogyne incognita Test Solvent: 125.0 parts by weight of acetone To produce a suitable active compound preparation, 1 part by weight of active compound is mixed with the stated amount of solvent and the concentrate is diluted with water to the desired concentration. Vessels are filled with sand, active compound solution, an egg/larvae suspension of the southern rootknot nematode (Meloidogyne incognita) and lettuce seeds. The lettuce seeds germinate and the plants develop. The galls develop on the roots. After 14 days, the nematicidal efficacy in % is determined by the formation of galls. 100% means that no galls were found; 0% means that the number of galls on the treated plants corresponds to the untreated control.

Row | Compound | pest or weed control at 20 ppm (Myzus persicae) [%] | pest or weed control at 20 ppm (Meloidogyne incognita) [%]
1 | CC(C)c1ccccc1-c1nc(C(=O)NS(=O)(=O)c2ccccc2Cl)cn1C [Example 209] | 90 | 90
2 | CCn1cc(C(=O)NS(=O)(=O)c2cccc(Cl)c2)nc1-c1ccccc1Cl [Example 40] | 100 | 100
3 | Cn1cc(C(=O)NS(=O)(=O)c2ccc(Br)s2)nc1-c1c(F)cccc1F [Example 353] | 90 | 90
4 | Cn1cc(C(=O)NS(=O)(=O)c2ccccc2Cl)nc1-c1cc(Cl)ccc1Cl [Example 511] | 100 | 100
5 | CCOc1c(Cl)cccc1S(=O)(=O)NC(=O)c1cn(C)c(-c2c(F)cccc2F)n1 [Example 314] | 100 | 90
6 | Cn1cc(C(=O)NS(=O)(=O)Cc2cccc(Cl)c2)nc1-c1ccccc1Cl [Example 61] | 100 | 100
7 | Cc1ccccc1-c1nc(C(=O)NS(=O)(=O)c2ccc(Cl)cc2)cn1C [Example 49] | 100 | 100
8 | CCn1cc(C(=O)NS(=O)(=O)c2ccccc2C(F)(F)F)nc1-c1ccccc1Cl [Example 21] | 100 | 90
9 | COc1cc(C(=O)NS(=O)(=O)c2ccccc2C)nn1-c1ccccc1Cl [Example 276] | 100 | 100
10 | COCCS(=O)(=O)NC(=O)c1cn(C)c(-c2c(F)cccc2F)n1 [Example 141] | 90 | 90
11 | CCc1[nH]c(-c2ccc(Cl)cc2)nc1C(=O)NS(=O)(=O)c1ccccc1C [Example 590] | 100 | 90
12 | Cn1cc(C(=O)NS(=O)(=O)c2ccc(Cl)c(Cl)c2)nc1-c1c(F)cccc1F [Example 187] | 100 | 90
13 | COc1ccccc1S(=O)(=O)NC(=O)c1nc(-c2c(F)cccc2F)nn1C [Example 409] |  | 90
14 | CCc1[nH]c(-c2c(F)cccc2F)nc1C(=O)NS(=O)(=O)c1cc(OC)ccc1Cl [Example 246] |  | 90
15 | Cc1[nH]c(-c2ccccc2F)nc1C(=O)NS(=O)(=O)c1ccccc1Cl [Example 626] |  | 90
16 | CCc1ccccc1-c1nc(C(=O)NS(=O)(=O)c2ccccc2OC)cn1C [Example 498] | 100 | 90
17 | Cc1[nH]c(-c2cccc(Cl)c2)nc1C(=O)NS(=O)(=O)c1ccccc1Cl [Example 233] | 100 | 90
18 | Cn1cc(C(=O)NS(=O)(=O)c2ccccc2C(C)(C)C)nc1-c1c(F)cccc1F [Example 360] |  | 90
19 | CCc1[nH]c(-c2ccccc2Cl)nc1C(=O)NS(=O)(=O)c1ccccc1Cl [Example 243] |  | 90
20 | O=C(NS(=O)(=O)c1c(Cl)cccc1Cl)c1cc(-c2ccccc2Cl)n(-c2ncccc2Cl)n1 [Example 263] |  | 100
21 | Cc1ccccc1S(=O)(=O)NC(=O)c1cn(C)c(-c2ccccc2[N+](=O)[O-])n1 [Example 525] | 100 | 100
22 | COc1ccc(Cl)c(S(=O)(=O)NC(=O)c2nc(-c3cccc(C(C)C)c3)[nH]c2C)c1 [Example 621] |  | 90

Row | Compound | pest or weed control at 20 ppm (Myzus persicae) [%] | pest or weed control at 20 ppm (Meloidogyne incognita) [%]
23 | Cc1ccccc1S(=O)(=O)NC(=O)c1cn(C)c(-c2ccc(F)c(F)c2)n1 [Example 545] |  | 100
24 | CCn1c(C(=O)NS(=O)(=O)c2ccccc2Cl)nc(-c2c(F)cccc2F)c1C [Example 414] | 100 | 100
25 | CCc1ccccc1-c1nc(C(=O)NS(=O)(=O)c2ccccc2Cl)cn1C [Example 496] | 90 | 100
26 | COc1cccc(S(C)(=O)=O)c1S(=O)(=O)NC(=O)c1cn(C)c(-c2c(F)cccc2F)n1 [Example 382] |  | 90
27 | COc1ccc(S(=O)(=O)NC(=O)c2cn(C)c(-c3c(F)cccc3F)n2)cn1 [Example 344] |  | 90
28 | CC(C)c1ccccc1S(=O)(=O)NC(=O)c1cn(C)c(-c2c(F)cccc2F)n1 [Example 359] |  | 90
29 | CC(C)S(=O)(=O)NC(=O)c1cn(C)c(-c2c(F)cccc2F)n1 [Example 85] |  | 90
30 | CCNc1ccccc1S(=O)(=O)NC(=O)c1cn(C)c(-c2ccccc2Cl)n1 [Example 251] |  | 90
31 | COc1ccccc1S(=O)(=O)NC(=O)c1cn(C)c(-c2cc(Cl)ccc2Cl)n1 [Example 527] |  | 90
32 | CCSc1ccccc1-c1nc(C(=O)NS(=O)(=O)c2ccccc2C)cn1C [Example 475] |  | 90
33 | Cn1cc(C(=O)NS(=O)(=O)c2ccccc2Cl)nc1-c1csc2ccccc12 [Example 522] |  | 90
34 | CCc1[nH]c(-c2ccc(F)c(F)c2)nc1C(=O)NS(=O)(=O)c1ccccc1Cl [Example 471] |  | 90
35 | Cc1[nH]c(-c2c(F)cccc2Cl)nc1C(=O)NS(=O)(=O)c1ccccc1Cl [Example 623] |  | 100
36 | CC(C)Cc1ccc(S(=O)(=O)NC(=O)c2cn(C)c(-c3c(F)cccc3F)n2)cc1 [Example 287] |  | 90
37 | COc1cccc(OC(C)C)c1S(=O)(=O)NC(=O)c1cn(C)c(-c2c(F)cccc2F)n1 [Example 380] |  | 100
38 | COc1ccc(Cl)c(S(=O)(=O)NC(=O)c2c(Cl)nc(-c3ccccc3Cl)n2C)c1 [Example 203] |  | 100
39 | Cc1[nH]c(-c2ccc(Cl)cc2)nc1C(=O)NS(=O)(=O)c1ccccc1Cl [Example 232] |  | 90
40 | COc1cccc(C(C)C)c1S(=O)(=O)NC(=O)c1cn(C)c(-c2c(F)cccc2F)n1 [Example 377] |  | 90
41 | Cn1cc(C(=O)NS(=O)(=O)c2ccccc2Cl)nc1-c1ccc(F)c(F)c1 [Example 544] |  | 100
42 | CCc1[nH]c(-c2cccc(C)c2C)nc1C(=O)NS(=O)(=O)c1ccccc1Cl [Example 472] |  | 90
43 | Cn1cc(C(=O)NS(=O)(=O)c2ccccc2Cl)nc1-c1ccccc1Oc1ccccc1 [Example 484] |  | 100
44 | CCc1[nH]c(-c2cccc(Cl)c2)nc1C(=O)NS(=O)(=O)c1ccccc1C [Example 129] |  | 90

Row | Compound | pest or weed control at 20 ppm (Myzus persicae) [%] | pest or weed control at 20 ppm (Meloidogyne incognita) [%]
45 | Cc1[nH]c(-c2ccc(Cl)c(Cl)c2)nc1C(=O)NS(=O)(=O)c1ccccc1Cl [Example 614] |  | 100
46 | Cn1c(-c2ccccc2Cl)nc(C(=O)NS(=O)(=O)c2ccccc2Cl)c1Br [Example 580] |  | 100
47 | Cn1cc(C(=O)NS(=O)(=O)Nc2ccc(Cl)cc2)nc1-c1c(F)cccc1F [Example 506] |  | 90
48 | Cn1cc(C(=O)NS(=O)(=O)Nc2ccccc2)nc1-c1c(F)cccc1F [Example 507] |  | 90
49 | O=C(NS(=O)(=O)c1ccccc1Cl)c1cc(-c2ncccc2Cl)n(-c2ccccc2Cl)n1 [Example 264] |  | 100
50 | Cc1cccc(C2CCCC2)c1S(=O)(=O)NC(=O)c1cn(C)c(-c2c(F)cccc2F)n1 [Example 362] |  | 100
51 | Cc1cc(C(=O)NS(=O)(=O)c2ccccc2Br)nn1-c1ccccc1C(F)(F)F [Example 292] |  | 90
52 | COc1ccc(Cl)c(S(=O)(=O)NC(=O)c2nc(-c3c(F)cccc3Cl)[nH]c2C)c1 [Example 624] |  | 90
53 | Cc1[nH]c(-c2ccc(F)cc2F)nc1C(=O)NS(=O)(=O)C(C)C [Example 622] |  | 90
54 | CC(C)N(C)S(=O)(=O)NC(=O)c1cn(C)c(-c2c(F)cccc2F)n1 [Example 551] |  | 90
55 | Cn1cc(C(=O)NS(=O)(=O)c2ccccc2Cl)nc1-c1cccs1 [Example 516] |  | 90
56 | Cc1ccccc1S(=O)(=O)NC(=O)c1cc(-c2ccccc2Cl)n(-c2ncccc2Cl)n1 [Example 261] |  | 90
57 | COc1ccccc1S(=O)(=O)NC(=O)c1cn(C)c(-c2ccccc2-c2ccccc2)n1 [Example 534] |  | 90
58 | COc1ccccc1S(=O)(=O)NC(=O)c1cn(C)c(-c2ccc(F)c(F)c2)n1 [Example 546] |  | 100
59 | Cn1cc(C(=O)NS(=O)(=O)c2ccccc2Cl)nc1-c1ccc(Cl)c(Cl)c1 [Example 535] |  | 100
60 | COc1ccccc1S(=O)(=O)NC(=O)c1cn(C)c(-c2cccc3ccccc23)n1 [Example 480] |  | 90
61 | Cn1cc(C(=O)NS(=O)(=O)c2ccccc2OC(C)(C)C)nc1-c1c(F)cccc1F [Example 376] |  | 90
62 | COc1ccc(C(C)(C)C)cc1S(=O)(=O)NC(=O)c1cn(C)c(-c2c(F)cccc2F)n1 [Example 392] |  | 90
63 | CCn1c(C(=O)NS(=O)(=O)c2ccccc2C)nc(-c2c(F)cccc2F)c1C [Example 417] |  | 100
64 | Cn1cc(C(=O)NS(=O)(=O)c2ccccc2Cl)nc1-c1cccc2c1OC(F)(F)O2 [Example 541] |  | 100
65 | COc1ccccc1S(=O)(=O)NC(=O)c1cn(C)c(-c2ccc(Cl)c(Cl)c2)n1 [Example 537] |  | 100
66 | Cn1cc(C(=O)NS(=O)(=O)N2CCOCC2)nc1-c1c(F)cccc1F [Example 505] |  | 90
